Reference: US20170107173A1, “THERAPEUTIC COMPOUNDS AND METHODS” (UNIVERSITY OF IOWA RESEARCH FOUNDATION, priority 2015, published 2017)

Legend:
[1] = target: T1, human δ opioid receptor (DOP) over-expressed in CHO cells (Homo sapiens, UniProt P41143); assay: [35S]GTPγS binding assay, functional antagonism (Ke) vs DPDPE; format: biochemical; settings: for Kb: [35S]GTPγS, agonist DPDPE, read-out: apparent affinity (Ke) of antagonists, DOP
T1 construct: host or cells: CHO cells; membrane homogenates
T1 sequence (P41143 whole entry): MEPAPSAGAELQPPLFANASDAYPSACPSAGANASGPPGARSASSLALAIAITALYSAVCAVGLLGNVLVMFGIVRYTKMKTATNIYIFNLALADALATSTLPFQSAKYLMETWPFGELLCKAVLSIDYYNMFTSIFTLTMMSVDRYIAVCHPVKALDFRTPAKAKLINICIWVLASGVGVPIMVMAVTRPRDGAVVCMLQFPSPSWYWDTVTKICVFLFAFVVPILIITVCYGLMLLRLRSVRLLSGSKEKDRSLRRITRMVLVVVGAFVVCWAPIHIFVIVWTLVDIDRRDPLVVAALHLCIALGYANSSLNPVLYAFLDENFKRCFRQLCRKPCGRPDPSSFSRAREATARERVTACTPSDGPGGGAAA
Description: (§1) All compounds were initially screened for intrinsic and antagonist activity at 10 μM in the [^35S]GTPγS binding assay at the human κ, and the μ, and δ opioid receptors over-expressed in CHO cells. These cell lines were kindly provided by Temple University (κ) and SRI International (μ and δ). Compounds identified as antagonist were characterized for functional antagonism (Ke) and selectivity by measuring the ability of the test compounds to inhibit stimulated [^35S]GTPγS binding produced by one of the selective agonists DAMGO (μ), DPDPE (δ), or U69,593 (κ). Agonist concentration-response curves were run in the presence or absence of a single concentration of test compound.
(§2) The test compounds were assayed in duplicate in 1.4-mL polypropylene tubes in a 96-well format. CHO membrane homogenates (20-40 µg protein) were incubated with a positive control or the test compound, 0.1 nM [^35S]GTP-γ-S and 1 μM GDP in 50 mM HEPES buffer (pH 7.4) at room temperature for 1 h, after which bound radioligand was separated from free radioligand via rapid vacuum filtration over GF-B filters with a Brandel Scientific (Gaithersburg, Md.) 96-well harvester. Bound radioactivity is determined using a TopCount 12-detector instrument (Packard Instruments) using standard scintillation counting techniques. Bound radioactivity is normalized to samples containing vehicle (basal binding). […] The Ke values were calculated using the formula Ke=[L]/DR−1, where [L] is the concentration of test compound, and DR is the ratio of agonist EC50 value in the presence or absence of test compound.

[2] = target: T2, human κ opioid receptor (KOP) over-expressed in CHO cells (Homo sapiens, UniProt P41145); assay: [35S]GTPγS binding assay, functional antagonism (Ke) vs U69,593; format: biochemical; settings: agonist U69,593, read-out: apparent affinity (Ke) of antagonists, KOP
T2 construct: host or cells: CHO cells; membrane homogenates
T2 sequence (P41145 whole entry): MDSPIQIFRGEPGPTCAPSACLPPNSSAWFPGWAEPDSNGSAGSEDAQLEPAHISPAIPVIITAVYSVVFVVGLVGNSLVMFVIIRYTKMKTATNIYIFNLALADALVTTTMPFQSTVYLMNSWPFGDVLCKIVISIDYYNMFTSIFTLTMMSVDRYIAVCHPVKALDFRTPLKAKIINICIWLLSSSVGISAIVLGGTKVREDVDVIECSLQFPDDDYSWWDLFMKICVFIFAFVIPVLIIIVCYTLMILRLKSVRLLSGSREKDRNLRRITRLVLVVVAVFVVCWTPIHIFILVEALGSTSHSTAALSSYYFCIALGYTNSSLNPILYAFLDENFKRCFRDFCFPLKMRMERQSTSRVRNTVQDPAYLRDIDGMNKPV
Description: as §1, §2

[3] = target: T3, human μ opioid receptor (MOP) over-expressed in CHO cells (Homo sapiens, UniProt P35372); assay: [35S]GTPγS binding assay, functional antagonism (Ke) vs DAMGO; format: biochemical; settings: agonist DAMGO, read-out: apparent affinity (Ke) of antagonists, MOP
T3 construct: host or cells: CHO cells; membrane homogenates
T3 sequence (P35372 whole entry): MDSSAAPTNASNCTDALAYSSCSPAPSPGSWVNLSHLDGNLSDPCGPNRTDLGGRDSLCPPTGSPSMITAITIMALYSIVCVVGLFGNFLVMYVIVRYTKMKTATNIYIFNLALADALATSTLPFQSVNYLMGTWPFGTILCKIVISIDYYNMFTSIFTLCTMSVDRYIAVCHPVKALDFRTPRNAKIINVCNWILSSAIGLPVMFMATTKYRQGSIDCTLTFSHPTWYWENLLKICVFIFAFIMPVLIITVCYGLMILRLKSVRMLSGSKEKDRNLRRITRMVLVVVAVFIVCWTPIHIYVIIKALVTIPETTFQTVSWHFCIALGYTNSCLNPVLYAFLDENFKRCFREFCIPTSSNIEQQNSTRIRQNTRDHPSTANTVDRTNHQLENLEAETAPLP
Description: as §1, §2

[4] = target: T2, human κ opioid receptor (KOP) over-expressed in CHO cells; settings: from Hartung et al., cited from earlier work; for Ke at the KOP: J. Nat. Prod. 2014, 77, 311
[5] = tested on: human κ, μ and δ opioid receptors over-expressed in CHO cells; assay: [35S]GTPγS binding assay, screen for intrinsic agonist activity; format: biochemical; settings: screened at 10 μM
Description: as §1
The test compounds were assayed in duplicate in 1.4-mL polypropylene tubes in a 96-well format. […] Bound radioactivity is determined using a TopCount 12-detector instrument (Packard Instruments) using standard scintillation counting techniques. Bound radioactivity is normalized to samples containing vehicle (basal binding). […] The Ke values were calculated using the formula Ke=[L]/DR−1, where [L] is the concentration of test compound, and DR is the ratio of agonist EC50 value in the presence or absence of test compound. […]

Kb [1] [µM]	Kb [2] [µM]	Kb [3] [µM]	KOP/DOP selectivity ([1]; ratio of Ke values)	MOP/DOP selectivity ([1]; ratio of Ke values)	SMILES	Ke at the KOP [4] [µM]	intrinsic agonist activity [5]	δ/κ selectivity ([4]; J. Nat. Prod. 2014)	μ/κ selectivity ([4]; J. Nat. Prod. 2014)
2.9	0.2	570	–	–	CC(C)=CCC/C(C)=C/Cc1c(O)cc(O)cc1/C=C/c1ccc(O)c(O)c1CC=C(C)C [Compound 1, pawhuskin A]	0.20	–	–	–
0.025	> 10	> 10	> 400	> 400	COc1cc(/C=C/c2ccc(O)c(O)c2CC=C(C)C)c(C/C=C(\C)CCC=C(C)C)c(OC)c1 [Compound 4]	–	no agonist activity	–	–
> 10	0.15	> 10	–	–	COc1cc(/C=C/c2cc(O)c(O)c(CC=C(C)C)c2)c(C/C=C(\C)CCC=C(C)C)c(OC)c1 [Compound 3, 5-((E)-2-((E)-3,7-dimethylocta-2,6-dien-1-yl)-3,5-dimethoxystyryl)-3-(3-methylbut-2-en-1-yl)benzene-1,2-diol]	0.15	–	> 67	> 67
